25 compounds from patent publication US6787561B1, “Benzimidazole compounds” (Fuji Photo Film Co., Ltd., priority 1999, dated 2004) can be followed below.

Data set [1] can be described thus: AUC (area under the plasma concentration) after oral administration to mice.
Procedure: (§1) The compounds of the present invention were orally administered to mice to evaluate AUC (area under the plasma concentration).
(§2) 8-week old BALB/cA male mice (Charles River Japan) were conditioned for one week after arrival and then used. Each test substance was dispersed in a medium containing 10% macrogol (Yoshida Seiyaku) and 90% physiological saline (Hikari Seiyaku) to prepare 5 mg/ml test substance suspension. Each prepared suspension was orally administered to 6 mice (30 mg/kg) at the same time, and cervical spine of one mouse was dislocated at each time, i.e., immediately after the administration, and 30 minutes, 1 hour, 2 hours, 4 hours and 6 hours after the administration. The whole blood was collected from abdominal aorta and blood level of the test substance was determined by liquid chromatography.
Data set [2] relates to mouse peritoneal macrophages. As to the kind of experiment: Suppression of foaming of macrophages: cholesterol ester yield in mouse peritoneal macrophages loaded with liposomes. It is filed as cell-based. The note with it: for activity at 5 µM: Mus musculus, Peritoneal macrophage, 16 h, read-out: CE yield (%). Here is the method:
Activity of the compounds of the present invention for suppressing the foaming of macrophages, which triggers arterial sclerosis, was examined.
(1) In vitro experiment using mouse peritoneal macrophages,
15-Week old female ICR mice (Nippon SLC) were subjected to bleeding by cutting off their cervicalis, and Hanks buffer (Nippon Seiyaku) was injected into their peritoneal cavities. After abdominal regions of the mice were massaged, the buffer was recovered immediately, and then the resulting buffer was centrifuged at 1,000 r.p.m. for five minutes to collect peritoneal macrophages. Then, the collected macrophages were suspended in GTI medium (Wako Pure Chemical Industries), and inoculated onto a 24-well microtiter plate. After the macrophages were cultivated at 37° C. under 5% CO2 for two hours, the culture medium was changed with Dulbecco Modified Eagle Medium (MEM, Nippon Seiyaku). The macrophages were further cultivated at 37° C. under 5% CO2 for 16 hours, and then a test compound and liposomes were added to the culture.
1) Test compound: dissolved in DMSO (Wako Pure Chemical Industries),
2) Liposomes: PC/PS/DCP/CHOL=50/50/10/75 (nmol)
After cultivation was further continued at 37° C. under 5% CO2 for 16 hours, lipid fraction was extracted with chloroform and methanol. The extracted lipid fraction was dissolved in isopropyl alcohol, and the produced cholesterol ester (CE) was quantified by an enzymatic luminescence method. Yield of the cholesterol ester was calculated as a relative ratio based on yield of the control as 100% where no test compound was added.

The conditions of data set [3]: mouse, in vivo, po, 30 mg/kg.
Procedure: as §1, §2
The mark [4] stands for this setting: male, BALB/cA, mouse, plasma, po, 30 mg/kg.
Setting [5] is: test compound 5 μM, cholesterol ester yield relative to control without test compound = 100%, smaller value = more potent suppression.

Like-named read-outs stand apart in the source and are kept apart here.

Broadly, the AUC is concentration integrated over time. Higher therefore signals high exposure. In data set [1] (setting [4]), `c1ccc2[nH]c(SCCOCCOCCNc3nc4ccccc4o3)nc2c1` [Compound 36, 2-(2-(2-(2-(2-benzoxazolylamino)ethoxy)ethoxy)ethylthio)-benzimidazole] gave an AUC of 680 ng·h/mL. The activity at 5 µM in data set [2] (setting [5]) amounted to 12%. As for `CCC(=O)n1c(SCCCCCOc2ccccn2)nc2ccccc21` [Compound 24, 1-Propionyl-2-(5-(2-pyridyloxy)pentylthio)benzimidazole], the activity at 5 µM in data set [2] (setting [5]) came to 25%. On the same count and under the same terms, under `c1ccc(OCCCCCCSc2nc3ccccc3[nH]2)nc1` [Compound 12, 2-(6-(2-pyridyloxy)hexylthio)benzimidazole] stands 13%; under `c1ccc(OCCCCCCCCSc2nc3ccccc3[nH]2)nc1` [Compound 10, 2-(8-(2-pyridyloxy)octylthio)benzimidazole], 12%. The same measure, in the same setting: next, `c1ccc2[nH]c(SCCCCCCNc3nc4ccccc4o3)nc2c1` [Compound 32, 2-(6-(2-benzoxazolylamino)hexylthio)benzimidazole]: 12%. For `Clc1cc2nc(SCCCCCOc3ccccn3)[nH]c2cc1Cl` [Compound 15, 5,6-dichloro-2-(5-(2-pyridyloxy)pentylthio)benzimidazole], in data set [1] (setting [4]), the AUC worked out at 680 ng·h/mL. In addition, the activity at 5 µM in data set [2] (setting [5]) turned out to be 18%. Compound `Cn1c(OCCCCCSc2nc3ccccc3[nH]2)nc2ccccc21` [Compound 9] yielded an AUC in data set [1] (setting [4]) of 110 ng·h/mL. In data set [2] (setting [5]), the activity at 5 µM came out at 6.2%. The like results for `c1cnc(OCCCCCSc2nc3ccccc3[nH]2)nc1` [Compound 6] were, in that order, 680 ng·h/mL and 12%. In the case of `COCn1c(SCCCCCNc2cnccn2)nc2ccccc21` [Compound 28, 1-methoxymethyl-2-(5-(N-(2-pyrazyl)amino)pentylthio)-benzimidazole], the AUC in data set [3] turned out to be 410 ng·h/mL. In addition, the “CE yield (%)” value in data set [2] (setting [5]) turned out to be 24%. Compound `c1ccc(OCCCCCSc2nc3ccccc3[nH]2)nc1` [Compound 1, 2-(5-(2-pyridyloxy)pentylthio)benzimidazole] returned an AUC in data set [1] (setting [4]) of 340 ng·h/mL. The activity at 5 µM in data set [2] (setting [5]) was 4.1%.

Turning to `c1ccc2[nH]c(SCCOCCNc3nc4ccccc4o3)nc2c1` [Compound 35, 2-(2-(2-(2-benzoxazolylamino)ethoxy)ethylthio)-benzimidazole], the activity at 5 µM in data set [2] (setting [5]) came to 9.7%. The same measure, in the same setting: under `C=C(C)n1c(OCCCCCSc2nc3ccccc3[nH]2)nc2ccccc21` [Compound 20, 2-(5-(2-benzimidazolylthio)pentyloxy)-1-isopropenyl-benzimidazole] stands 22%.

Take `CC(=O)Nc1ccc2nc(SCCCCCOc3ccccn3)[nH]c2c1` [Compound 18, 5-acetylamino-2-(5-(2-pyridyloxy)pentylthio)benzimidazole]: in data set [2] (setting [5]), the activity at 5 µM worked out at 19%. Regarding `c1ccc2[nH]c(SCCCCCOc3ccncc3)nc2c1` [Compound 19, 2-(5-(4-pyridyloxy)pentylthio)benzimidazole], the AUC in data set [1] (setting [4]) is 5520 ng·h/mL. Moreover, the activity at 5 µM in data set [2] (setting [5]) is 4.2%. Compound `Cn1c(SCCCCCOc2ccccn2)nc2ccccc21` [Compound 23, 1-Methyl-2-(5-(2-pyridyloxy)pentylthio)benzimidazole] yielded an AUC in data set [1] (setting [4]) of 860 ng·h/mL. The activity at 5 µM in data set [2] (setting [5]) was found to be 21%. The like results for `c1ccc2[nH]c(SCCCCCOc3nccs3)nc2c1` [Compound 5] were, in that order, 100 ng·h/mL and 11%. On the same counts, the results for `c1ccc(OCCCCSc2nc3ccccc3[nH]2)nc1` [Compound 11, 2-(4-(2-pyridyloxy)butylthio)benzimidazole] are 240 ng·h/mL and 18%. In data set [3], `c1ccc2[nH]c(SCCCCCNc3nc[nH]n3)nc2c1` [Compound 29, 2-(5-(3-(1,2,4-triazyl)amino)pentylthio)benzimidazole] registered an exposure (AUC) of 180 ng·h/mL. In addition, the “CE yield (%)” value in data set [2] (setting [5]) is 12%. As to `c1ccc(OCCCCCCCSc2nc3ccccc3[nH]2)nc1` [Compound 13, 2-(7-(2-pyridyloxy)heptylthio)benzimidazole], the AUC in data set [1] (setting [4]) stood at 150 ng·h/mL. Further, in data set [2] (setting [5]), the activity at 5 µM turned out to be 20%.

`COc1ccc2nc(SCCCCCOc3ccccn3)[nH]c2c1` [Compound 17, 5-methoxy-2-(5-(2-pyridyloxy)pentylthio)benzimidazole] showed an AUC in data set [1] (setting [4]) of 1220 ng·h/mL. Further, in data set [2] (setting [5]), the activity at 5 µM was determined as 14%. On the same counts, the results for `Cc1ccc2nc(SCCCCCOc3ccccn3)[nH]c2c1` [Compound 16, 5-methyl-2-(5-(2-pyridyloxy)pentylthio)benzimidazole] are 1410 ng·h/mL and 14%. As to “2-(5-(1-phenyltetrazolyl-5-oxy)pentylthio)benzimidazole [Compound 2]”, the AUC in data set [1] (oral 30 mg/kg suspension, BALB/cA male mice, blood level 0 to 6 hours by liquid chromatography) was found to be 1220 ng·h/mL. Besides, the “CE yield (%)” value in data set [2] is listed as 21%. In data set [1] (setting [4]), `c1ccc2[nH]c(SCCCCCCOc3ccncc3)nc2c1` [Compound 25, 2-(6-(4-pyridyloxy)hexylthio)benzimidazole] gave an AUC of 1210 ng·h/mL. Further, the activity at 5 µM in data set [2] (setting [5]) was found to be 2.8%. With `c1ccc2[nH]c(SCCCCCNc3nc4ccccc4s3)nc2c1` [Compound 30, 2-(5-(2-benzothiazolylamino)pentylthio)benzimidazole], the AUC in data set [1] (setting [4]) worked out at 230 ng·h/mL. The activity at 5 µM in data set [2] (setting [5]) is 4.2%.

Compound `c1ccc2[nH]c(OCCCCCSc3nc4ccccc4[nH]3)nc2c1` [Compound 21, 2-(5-(2-benzimidazolylthio)pentyloxy)benzimidazole] had an AUC in data set [1] (setting [4]) of 2420 ng·h/mL. In addition, in data set [2] (setting [5]), the activity at 5 µM stood at 18%.
